Assay results published in patent US11141394B2, “Carbon dioxide external preparation” (priority 2017, dated 2021).

Legend:
[1] = system: pain of de Quervain syndrome; test: Pain relief test (de Quervain syndrome); format: in vivo, human; details: person one; oral, earlier treatment
Protocol: This test was conducted by a physical therapist. subject one was a person who has been suffering from de Quervain syndrome. Oral anti-inflammatory loxoprofen sodium had shown no effect on the pain of de Quervain syndrome. They had been suffering from sharp pain in the short rollical extensor muscle and the […] of the radial aspect of the hand joint. […] Therefore, pain relief effect of a carbon dioxide external preparation of the present invention was obvious.

[2] = system: pain and knee stiffness of rheumatism; test: Pain and knee stiffness of rheumatism improvement test; format: in vivo, human; details: person two; oral, earlier treatment
Source text: Therefore, pain and knee stiffness of rheumatism improvement effect of a carbon dioxide external preparation of the present invention was obvious.

CC(C(=O)O)c1ccc(CC2CCCC2=O)cc1 (centres unmarked) [loxoprofen sodium]
effect on the pain of de Quervain syndrome [1]: no effect | pain and knee stiffness of rheumatism [2]: had not been improved
